Values of other authors as cited in patent US8183241B2, “2-oxo-1-pyrrolidine derivatives” (UCB Pharma, S.A., priority 2005, dated 2012).

Settings: Eur. J. Pharmacol. (1992), 222, 193-203

| Compound | activity in the treatment of epilepsy |
| --- | --- |
| CC[C@H](C(N)=O)N1CCCC1=O [(R)-α-ethyl-2-oxo-1-pyrrolidine acetamide] | completely lacks activity |
| CC[C@@H](C(N)=O)N1CCCC1=O [Levetiracetam, (S)-α-ethyl-2-oxo-1-pyrrolidine acetamide] | effective in the treatment of epilepsy |
